The results in this text go back to patent US10300074B2, “Use of inhibitor of apoptosis protein (IAP) antagonists in HIV therapy” (Sanford-Burnham Medical Research Institute, priority 2014, dated 2019).

Experiment [1] deals with Latently infected Jurkat JLat 10.6 cells. The following applies: HDAC inhibitor in combination with Compound 35, 36 hours, normalized against background of HDAC inhibitor alone.
A further experiment concerns the target XIAP BIR3 (Homo sapiens (Human), UniProt P98170). Description: XIAP BIR3 Ki. It is filed as binding.
For a further experiment, the target named is XIAP BIR1/2 (Homo sapiens (Human), UniProt P98170). Put plainly: XIAP BIR1/2 Ki. It is filed as binding. The following applies: Table B-1.
XIAP BIR1/2, sequence (P98170 1-240): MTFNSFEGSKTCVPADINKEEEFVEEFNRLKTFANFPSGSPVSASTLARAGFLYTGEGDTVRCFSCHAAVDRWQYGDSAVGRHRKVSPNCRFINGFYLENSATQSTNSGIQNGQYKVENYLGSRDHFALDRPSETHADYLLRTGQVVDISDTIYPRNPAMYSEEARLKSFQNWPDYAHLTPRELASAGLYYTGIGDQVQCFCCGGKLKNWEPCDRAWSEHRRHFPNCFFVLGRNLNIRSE
The next experiment has as its target ML-IAP (Homo sapiens (Human), UniProt Q96CA5). Description: ML-IAP Ki. The following applies: Table 2-2. It is filed as binding.

XIAP BIR3, sequence (P98170 241-356): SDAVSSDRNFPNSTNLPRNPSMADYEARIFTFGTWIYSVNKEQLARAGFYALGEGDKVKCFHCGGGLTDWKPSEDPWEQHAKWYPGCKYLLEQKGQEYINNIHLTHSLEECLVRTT
ML-IAP, sequence (Q96CA5 whole entry): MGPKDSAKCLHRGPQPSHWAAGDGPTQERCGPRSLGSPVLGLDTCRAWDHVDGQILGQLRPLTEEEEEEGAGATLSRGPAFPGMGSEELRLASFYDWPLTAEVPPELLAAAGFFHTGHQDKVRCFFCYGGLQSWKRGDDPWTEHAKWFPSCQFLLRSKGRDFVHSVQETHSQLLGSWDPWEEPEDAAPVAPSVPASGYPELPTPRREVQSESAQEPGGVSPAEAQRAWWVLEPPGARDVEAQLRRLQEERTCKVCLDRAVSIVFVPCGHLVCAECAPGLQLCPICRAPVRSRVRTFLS

As for `CCCC(=O)OCc1ccc(OC(=O)/C=C(C)/C=C/C=C(C)/C=C/C2=C(C)CCCC2(C)C)cc1` [ATRA-BA Hybrid, Retinoic acid, 4-[(1-oxobutoxy)methyl]phenyl ester], the “Group: increase of GFP+ cells” value in experiment [1] was “A (A 0-25%)”.
For the compound `CCC(=O)CCCCC[C@@H]1NC(=O)[C@H]2CCCCN2C(=O)[C@H]([C@@H](C)CC)NC(=O)[C@H](Cc2cn(OC)c3ccccc23)NC1=O` [Apicidin], in experiment [1], the “Group: increase of GFP+ cells” value was “C (C 50-75%)”.
On the same count and under the same terms, under `Nc1ccccc1NC(=O)CCCCCCC(=O)Nc1ccccc1` [BML-210, Octanediamide, N1-(2-aminophenyl)-N8-phenyl-] stands “A (A 0-25%)”.
In the case of `CC(C)(C)OC(=O)Nc1ccc(-c2cc(C(=O)NCCCCCCC(=O)NO)no2)cc1` [BML-281, Carbamic acid, N-[4-[3-[[[7-(hydroxyamino)-7-oxoheptyl]amino]carbonyl]-5-isoxazolyl]phenyl]-, 1,1-dimethylethyl ester], the “Group: increase of GFP+ cells” value in experiment [1] is “B (B 25-50%)”.
`CC(=O)Nc1ccc(C(=O)Nc2ccccc2N)cc1` [CI-994, Benzamide, 4-(acetylamino)-N-(2-aminophenyl)-]: in experiment [1], the “Group: increase of GFP+ cells” value is on record as “A (A 0-25%)”.
`CN[C@@H](C)C(=O)N[C@H]1CO[C@H]2CCC(C(=O)Nc3ccc(OC)cc3)N2C1=O` (some centres unmarked) [Compound 3]: the inhibition constant (Ki) – broadly, a dissociation constant, usually derived from enzyme kinetics or from competition with a known ligand – at XIAP BIR3 (Table B-1) lay within 25 to 50 µM.
On to `CN[C@@H](C)C(=O)N[C@H]1CO[C@H]2CCC(C(=O)Nc3ccc(OC)cc3)N2C1=O` (some centres unmarked) [Compound 4], for which the Ki on XIAP BIR1/2 was more than 50 µM; at XIAP BIR3 (Table B-1), 25 to 50 µM.
With `CN[C@@H](C)C(=O)N[C@H]1CO[C@H]2CCC(C(=O)NCc3ccccc3)N2C1=O` (some centres unmarked) [Compound 5], the Ki at XIAP BIR1/2 was more than 50 µM; at XIAP BIR3 (Table B-1) it was 25 to 50 µM.
`CN[C@@H](C)C(=O)N[C@H]1CO[C@H]2CCC(C(=O)NCc3ccccc3)N2C1=O` (some centres unmarked) [Compound 6]: the Ki on XIAP BIR3 (Table B-1) lay in the range of 25 to 50 µM.
`CN[C@@H](C)C(=O)N[C@H]1CO[C@H]2CCC(C(=O)Nc3ccc(OC)cc3)N2C1=O` (some centres unmarked) [Compound 7] returned a Ki on XIAP BIR3 (Table B-1) of 25 to 50 µM.
For the compound `CN[C@@H](C)C(=O)N[C@H]1CO[C@H]2CCC(C(=O)Nc3ccc(Cl)cc3)N2C1=O` (some centres unmarked) [Compound 8], the inhibition constant Ki on XIAP BIR1/2 was more than 50 µM; at XIAP BIR3 (Table B-1) it was 25 to 50 µM.
On the same counts, the results for `CN[C@@H](C)C(=O)N[C@H]1CO[C@H]2CCC(C(=O)NC3CCCc4ccccc43)N2C1=O` (some centres unmarked) [Compound 9] are more than 50 µM and not above 25 µM.
Take `CN[C@@H](C)C(=O)N[C@@H]1C(=O)N2C(C(=O)Nc3cccc4ccccc34)CC[C@@H]2O[C@@H]1C` (some centres unmarked) [Compound 11]: the Ki was more than 50 µM at XIAP BIR1/2 and 25 to 50 µM on XIAP BIR3 (Table B-1).
`CN[C@@H](C)C(=O)N[C@H]1CCO[C@H]2CCC(C(=O)Nc3cccc4ccccc34)N2C1=O` (some centres unmarked) [Compound 13]: the inhibitory constant (Ki) at XIAP BIR1/2 and on XIAP BIR3 (Table B-1) was not above 25 µM in each case.
Consider `CN[C@@H](C)C(=O)N[C@@H]1C(=O)N2C(C(=O)NC(c3ccccc3)c3ccccc3)CC[C@@H]2O[C@@H]1C` (some centres unmarked) [Compound 15], for which the Ki on XIAP BIR1/2 was more than 50 µM; on XIAP BIR3 (Table B-1) it was 25 to 50 µM.
`CN[C@@H](C)C(=O)N[C@H]1CCCNC2CCC(C(=O)NC3CCCc4ccccc43)N2C1=O` (some centres unmarked) [Compound 16]: the inhibition constant Ki is 25 to 50 µM on XIAP BIR1/2 and not above 25 µM at XIAP BIR3 (Table B-1).
On to `CN[C@@H](C)C(=O)N[C@H]1CCCNC2CCC(C(=O)Nc3cccc4ccccc34)N2C1=O` (some centres unmarked) [Compound 17], for which the Ki on XIAP BIR1/2 and on XIAP BIR3 (Table B-1) was not above 25 µM throughout.
For the compound `CN[C@@H](C)C(=O)N[C@H]1CCS[C@H]2CC(C)(C)C(C(=O)N[C@@H]3CCCc4ccccc43)N2C1=O` (some centres unmarked) [Compound 17c], the Ki at XIAP BIR3 (Table 2-2) and on ML-IAP was not above 25 µM throughout.
For the compound `CC(=O)N(C)[C@@H](C)C(=O)N[C@H]1CCCN(C(C)=O)[C@H]2CCC(C(=O)Nc3cccc4ccccc34)N2C1=O` (some centres unmarked) [Compound 18], the values for the inhibition constant Ki at XIAP BIR1/2 and on XIAP BIR3 (Table B-1) were more than 50 µM and 25 to 50 µM, respectively.
Take `CC(=O)N(C)[C@@H](C)C(=O)N[C@H]1CCCN(C(C)=O)[C@H]2CCC(C(=O)Nc3cccc4ccccc34)N2C1=O` (some centres unmarked) [Compound 19]: the inhibitory constant (Ki) at XIAP BIR3 (Table B-1) was in the range of 25 to 50 µM.
As to `CN[C@@H](C)C(=O)N[C@H]1CCCN(C(C)=O)C2CCC(C(=O)NC3CCCc4ccccc43)N2C1=O` (some centres unmarked) [Compound 20], the inhibition constant Ki at XIAP BIR1/2 is more than 50 µM; at XIAP BIR3 (Table B-1) it was not above 25 µM.
On to `CN[C@@H](C)C(=O)N[C@H]1CCO[C@H]2CCC(C(=O)n3ccc4ccccc43)N2C1=O` (some centres unmarked) [Compound 22], for which the figures for the inhibitory constant (Ki) at XIAP BIR1/2 and on XIAP BIR3 (Table B-1) were more than 50 µM and 25 to 50 µM, respectively.
The compound `CN[C@@H](C)C(=O)N[C@H]1CCO[C@H]2CCC(C(=O)n3ccc4ccccc43)N2C1=O` (some centres unmarked) [Compound 23] yielded a Ki at XIAP BIR3 (Table B-1) of 25 to 50 µM.
On to `CN[C@@H](C)C(=O)N[C@H]1CCO[C@H]2CC[C@@H](C(=O)Nc3cccc4ccccc34)N2C1=O` [Compound 25], for which the Ki at XIAP BIR1/2 and on XIAP BIR3 (Table B-1) was not above 25 µM in each case.
In the case of `CN[C@@H](C)C(=O)N[C@H]1CCN[C@H]2CCC(C(=O)N[C@@H]3CCCc4ccccc43)N2C1=O` (some centres unmarked) [Compound 28], the values for the Ki on XIAP BIR1/2 and at XIAP BIR3 (Table B-1) were more than 50 µM and 25 to 50 µM, respectively.
In the case of `CN[C@@H](C)C(=O)N[C@H]1CCN[C@H]2CCC(C(=O)N[C@@H]3CCCc4ccccc43)N2C1=O` (some centres unmarked) [Compound 29], the inhibition constant (Ki) at XIAP BIR1/2 and at XIAP BIR3 (Table B-1) was more than 50 µM in each case.
Take `CN[C@@H](C)C(=O)N[C@H]1Cc2c([nH]c3ccccc23)[C@H]2CCC(C(=O)N[C@@H]3CCCc4ccccc43)N2C1=O` (some centres unmarked) [Compound 30]: the Ki is more than 50 µM at XIAP BIR1/2 and 25 to 50 µM on XIAP BIR3 (Table B-1).
In the case of `CN[C@@H](C)C(=O)N[C@H]1Cc2c([nH]c3ccccc23)[C@H]2CCC(C(=O)N[C@@H]3CCCc4ccccc43)N2C1=O` (some centres unmarked) [Compound 31], the inhibition constant (Ki) at XIAP BIR1/2 and on XIAP BIR3 (Table B-1) was not above 25 µM in each case.
On to `CN[C@@H](C)C(=O)N[C@H]1CCS(=O)(=O)[C@H]2CC[C@@H](C(=O)N[C@@H]3CCCc4ccccc43)N2C1=O` [Compound 37], for which the results for the Ki on XIAP BIR1/2 and at XIAP BIR3 (Table B-1) were more than 50 µM and not above 25 µM, respectively.
Take `CN[C@@H](C)C(=O)N[C@H]1CCS(=O)(=O)[C@H]2CC[C@H](C(=O)N[C@@H]3CCCc4ccccc43)N2C1=O` [Compound 38]: the Ki on XIAP BIR1/2 was more than 50 µM; on XIAP BIR3 (Table B-1) it was 25 to 50 µM.
Regarding `CN[C@@H](C)C(=O)N[C@H]1CCO[C@H]2CC[C@H](C(=O)N[C@@H]3CCOc4ccccc43)N2C1=O` [Compound 39], the inhibition constant (Ki) is more than 50 µM at XIAP BIR1/2 and 25 to 50 µM at XIAP BIR3 (Table B-1).
For `CN[C@@H](C)C(=O)N[C@H]1CCO[C@H]2CC(C)(C)C(C(=O)Nc3ccccc3SSc3ccccc3NC(=O)C3N4C(=O)[C@@H](NC(=O)[C@H](C)NC)CCO[C@H]4CC3(C)C)N2C1=O` (some centres unmarked) [Compound 40], the Ki on XIAP BIR1/2 and on XIAP BIR3 (Table B-1) was not above 25 µM throughout.
With `CN[C@@H](C)C(=O)N[C@H]1CCS[C@H]2CCCC(C(=O)N[C@@H]3CCCc4ccccc43)N2C1=O` (some centres unmarked) [Compound 41], the Ki at XIAP BIR1/2 and on XIAP BIR3 (Table B-1) was not above 25 µM in each case.
`CN[C@@H](C)C(=O)N[C@H]1CCO[C@H]2CC3(CCCC3)C(C(=O)N[C@@H]3CCCc4ccccc43)N2C1=O` (some centres unmarked) [Compound 43]: the Ki on XIAP BIR1/2 and on XIAP BIR3 (Table B-1) was not above 25 µM each time.
Turning to `CN[C@@H](C)C(=O)N[C@H]1Cc2ccc(O)cc2[C@H]2CC(C)(C)C(C(=O)N[C@@H]3CCCc4ccccc43)N2C1=O` (some centres unmarked) [Compound 45], the inhibitory constant (Ki) on XIAP BIR1/2 and at XIAP BIR3 (Table B-1) was not above 25 µM throughout.
Take `CN(C)c1ccc(C(=O)NCCCCCCC(=O)NO)cc1` [Compound M344, Benzamide, 4-(dimethylamino)-N-[7-(hydroxyamino)-7-oxoheptyl]-]: the “Group: increase of GFP+ cells” value in experiment [1] is on record as “C (C 50-75%)”.
For `Cc1cc(Cl)ccc1OCCCC(=O)NO` [Droxinostat], the “Group: increase of GFP+ cells” value in experiment [1] was “B (B 25-50%)”.
On the same count and under the same terms, under `O=C(CCCCCCSc1ccc2ccccc2c1)NO` [HNHA, Heptanamide, N-hydroxy-7-(2-naphthalenylthio)-] stands “B (B 25-50%)”; under `Cc1ccc(C(=O)c2cc(C=CC(=O)NO)n(C)c2)cc1` [MC-1293, 2-Propenamide, N-hydroxy-3-[1-methyl-4-(4-methylbenzoyl)-1H-pyrrol-2-yl]-], “B (B 25-50%)”.
Take `CC(C)C(=O)SCCCCCCC(=O)Nc1nc(-c2ccccc2)cs1` [NCH-51, Propanethioic acid, 2-methyl-, S-[7-oxo-7-[(4-phenyl-2-thiazolyl)amino]heptyl] ester]: in experiment [1], the “Group: increase of GFP+ cells” value is “A (A 0-25%)”.
As for `CC(CC1OCCN(Cc2nc(=O)[nH][nH]2)C1c1ccc(F)cc1)c1cc(C(F)(F)F)cc(C(F)(F)F)c1` (centres unmarked) [NKL 22, 3H-1,2,4-Triazol-3-one, 5-[[2-[2-[3,5-bis(trifluoromethyl)phenyl]propyl]-3-(4-fluorophenyl)-4-morpholinyl]methyl]-1,2-dihydro-], the “Group: increase of GFP+ cells” value in experiment [1] is “A (A 0-25%)”.
Regarding `O=Nc1ccc(O)c2ncccc12` [NSC-3852, 8-Quinolinol, 5-nitroso-], the “Group: increase of GFP+ cells” value in experiment [1] was “B (B 25-50%)”.
In the case of `O=C([O-])CCCc1ccccc1.[Na+]` [Phenylbutyrate•Na, Phenylbutyrate⋅Na], the “Group: increase of GFP+ cells” value in experiment [1] is given as “A (A 0-25%)”.
With `O=C(CCCCCN1C(=O)c2cccc3cccc(c23)C1=O)NO` [Scriptaid], the “Group: increase of GFP+ cells” value in experiment [1] is reported as “C (C 50-75%)”.
As to `O=C(CCCCCCC(=O)NO)NO` [Suberoyl bis-hydroxamic acid], the “Group: increase of GFP+ cells” value in experiment [1] is “B (B 25-50%)”.
Still for that read-out and setting: under `CC(/C=C/C(=O)NO)=C\[C@@H](C)C(=O)c1ccc(N(C)C)cc1` [Trichostatin A] stands “C (C 50-75%)”.
For the compound `CCCC(CCC)C(=O)O` [Valproic acid, valproic acid], the “Group: increase of GFP+ cells” value in experiment [1] was “A (A 0-25%)”.
Regarding `O=C(CCCCCCC(=O)Nc1ccc(F)cc1)NO` [p-Fluoro-SAHA], the “Group: increase of GFP+ cells” value in experiment [1] is recorded as “A (A 0-25%)”.
For Oxamflatin, the “Group: increase of GFP+ cells” value in experiment [1] is “C (C 50-75%)”.
